Source: patent publication US10463664B2, “Inhibitors of HSV nucleotidyl transferases and uses therefor” (Saint Louis University, priority 2013, dated 2019)

Legend:
HSV-1 [1] = assay: Anti-HSV-1 replication assay in Vero cells, titer by plaque assay; type: cell-based, herpes simplex virus 1; conditions: for Anti-HSV-1 Log10 suppression 5 μM / Anti-HSV-1 Log10 suppression 50 μM: moi 0.1, 24 h, relative to DMSO; for Anti-HSV-1 Log10 suppression 5 μM (screening symbol) / Anti-HSV-1 Log10 suppression 50 μM (screening symbol): visual inspection; for Inhibition of HSV-1 replication (in words): primary screening
Method: (§1) Anti-HSV-1 and -HSV-2 Replication Assay. Compounds to be screened were diluted in PBS supplemented to contain 2% newborn calf serum and 1% glutamine, and added in 100 μL, volume to confluent cell monolayers in 24-well cluster plates. Immediately thereafter HSV-1 and HSV-2, diluted in the supplemented PBS medium, were added to the wells in 50 μl volume such that the final concentration of compound was 50 μM and 5 μM and the multiplicity of infection was 0.1. The plates were incubated at 37° C. for 1 hour and then virus-containing inoculum was removed and the wells were washed once in PBS. Compounds, diluted to 50 μM and 5 μM in DMEM supplemented to contain 2% newborn calf serum and 1% each penicillin/streptomycin, were added at 0.5 mL/well. Plates were incubated at 37° C. an additional 23 hr, and then the plates were visually inspected through a phase contrast microscope for cytopathic effect, and for toxic effect. […] The entire contents of each well were collected by scraping. Samples were frozen at −80° C., and then subsequently thawed, sonicated, and infectious virus titer was determined by standard plaque assay on Vero cell monolayers. Because the compounds were dissolved at 10 mM in 100% DMSO, equivalent dilutions of DMSO were added to additional wells as a control for effects of the diluent. Each experiment was repeated once. EC50 values were determined as above except that serial dilutions of the compound to be tested were prepared starting at 50 μM. The inhibitory values were calculated by non-linear curve-fitting in GraphPad Prism.
(§2) Monolayers were microscopically inspected 24 hours post-infection and wells in which more cells were visually healthier than the DMSO-treated controls were collected. Viral titers in the culture lysates were then determined by standard plaque assay on Vero cells. Inhibition of viral replication was categorized as <1 log10 relative to the DMSO-treated control, 1 to 3 log10 suppression, or ≥3 log10 suppression. […] Additionally, four polyoxygenated heterocycle compounds were tested (#128, 138, 139, 140).

HBV RNaseH = molecular target: T1, HBV RNaseH (Hepatitis B virus genotype A2 subtype adw2, UniProt P03159); assay: Biochemical inhibition of HBV RNaseH (oligonucleotide-directed RNA cleavage assay); conditions: compounds at 60, 20 or 10 μM
T1 construct: One of the inventors recently produced active recombinant HBV RNase H; hexahistidine; made in house; host or cells: E. coli
Method: (§3) Biochemical inhibition of HBV RNaseH and human RNaseH1 activity. […] RNaseH activity was measured using an oligonucleotide-directed RNA cleavage assay in which a DNA oligonucleotide is annealed to an internally ^32P-labeled RNA, the RNA:DNA heteroduplex is incubated with the enzyme to permit cleavage, and then the RNA cleavage products are resolved by electrophoresis and detected by autoradiography. The compounds were included in the reaction mixes at 60, 20, or 10 μM and the amount of the RNA cleavage products in the compound-containing reactions was compared to reactions in which an equivalent concentration of DMSO was added as a vehicle control. The data were quantified using ImageJ.

HSV-2 [2] = assay: Anti-HSV-2 replication assay in Vero cells, titer by plaque assay; type: cell-based, herpes simplex virus 2; conditions: for Anti-HSV-2 Log10 suppression 5 μM / Anti-HSV-2 Log10 suppression 50 μM: moi 0.1, 24 h, relative to DMSO; for Anti-HSV-2 Log10 suppression 5 μM (screening symbol) / Anti-HSV-2 Log10 suppression 50 μM (screening symbol): visual inspection; for Inhibition of HSV-2 replication (in words): primary screening
Method: as §1, §2

human RNaseH1 = molecular target: T2, human RNaseH1 (Homo sapiens, UniProt O60930); assay: Biochemical inhibition of human RNaseH1 (oligonucleotide-directed RNA cleavage assay); conditions: compounds at 60, 20 or 10 μM
T2 construct: hexahistidine; made in house; host or cells: E. coli
T2 sequence (O60930 1-286): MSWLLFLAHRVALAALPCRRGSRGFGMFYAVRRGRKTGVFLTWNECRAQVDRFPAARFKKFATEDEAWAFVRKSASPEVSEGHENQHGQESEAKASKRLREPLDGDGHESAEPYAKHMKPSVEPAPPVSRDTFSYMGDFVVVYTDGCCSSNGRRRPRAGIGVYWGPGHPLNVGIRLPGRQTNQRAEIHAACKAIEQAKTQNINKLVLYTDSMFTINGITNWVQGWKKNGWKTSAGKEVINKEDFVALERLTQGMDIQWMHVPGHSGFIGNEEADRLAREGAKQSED
Method: as §3

Vero cells = assay: Qualitative (visual) cytotoxicity assessment in primary screening; type: cell-based; set-up: key to Vero cell toxicity Qualitative: T: visual evidence of toxicity at 50 μM; conditions: for Vero cell toxicity Qualitative: visual, 50 μM
Method: Compound Cytotoxicity. Compound cytotoxicity was measured both subjectively and quantitatively. Subjective assessments were done by visually inspecting the infected cells at the end of the 24 hours infection window through a phase-contrast microscope.

HSV-1 [3] = assay: HSV-1 replication inhibition in primary human foreskin fibroblasts; type: cell-based, herpes simplex virus 1; set-up: key to Replication inhibition HSV-1 50 μM (not quantified): NQ: Not quantified due to visible toxicity; conditions: HFF cells; for Replication inhibition HSV-1 5 μM / Replication inhibition HSV-1 50 μM: relative to DMSO-treated control
Method: as §1
(§4) Inhibition of viral replication was next assessed in human foreskin fibroblasts (HFF) to determine whether NTS inhibitors could block HSV-1 and HSV-2 replication in a physiologically relevant, primary human cell type. […] Viral yields 24 hours post-infection were measured by plaque assay.

[4] = system: primary human foreskin fibroblasts; assay: MTT toxicity assay in human foreskin fibroblasts
Method: Toxicity Assays. Qualitative assessments of cytotoxicity were done visually by inspecting the cells in the primary screening assays. For the quantitative assays, cells were plated in 96-well plates at 1.0×10^4 per well. The next day the compounds were added at 0.78 to 100 μM in a final concentration of 1% (v/v) DMSO, and the cells were incubated for 24 hours under conditions identical to those employed for the viral replication inhibition assays. Mitochondrial toxicity was measured by incubating the cells with 0.25 mg/mL thiazolyl blue tetrazolium bromide (MTT, SigmaAldrich Chemical Co.), the cultures were incubated for 60 min, metabolites were solubilized in acidic isopropanol, and absorbance was read at 570 nm. Cellular lysis was measured by detecting release of intracellular proteases with the CytoTox-Glo assay (Promega) according to the manufacturer's instructions. Percent viability was determined for each compound concentration from the maximal absorbance or luminosity data, and then CC50 values were calculated by non-linear curve fitting using GraphPad Prism.
as §4

HSV-2 [5] = assay: HSV-2 replication inhibition in primary human foreskin fibroblasts; type: cell-based, herpes simplex virus 2; set-up: key to Replication inhibition HSV-2 50 μM (not quantified): NQ: Not quantified due to visible toxicity; conditions: HFF cells; for Replication inhibition HSV-2 5 μM / Replication inhibition HSV-2 50 μM: relative to DMSO-treated control
Method: as §1, §4

T1 sequence (P03159 693-845): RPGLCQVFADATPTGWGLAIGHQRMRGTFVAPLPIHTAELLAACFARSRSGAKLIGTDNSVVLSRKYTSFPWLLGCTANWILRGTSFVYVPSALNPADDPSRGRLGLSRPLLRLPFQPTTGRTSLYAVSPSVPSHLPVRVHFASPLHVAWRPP

SMILES | Anti-HSV-1 Log10 suppression 5 μM (HSV-1 [1]) | Anti-HSV-1 Log10 suppression 50 μM (HSV-1 [1]) | Anti-HBV RNaseH (HBV RNaseH) | Anti-HSV-2 Log10 suppression 5 μM (HSV-2 [2]) | Anti-HSV-2 Log10 suppression 50 μM (HSV-2 [2]) | Anti-Human RNaseH1 (human RNaseH1) | Anti-HSV-1 Log10 suppression 5 μM (screening symbol) (HSV-1 [1]) | Anti-HSV-1 Log10 suppression 50 μM (screening symbol) (HSV-1 [1]) | Anti-HSV-2 Log10 suppression 5 μM (screening symbol) (HSV-2 [2]) | Anti-HSV-2 Log10 suppression 50 μM (screening symbol) (HSV-2 [2]) | further results
Cc1nnc(C(=O)NC(C)(C)c2nc(C(=O)NCc3ccc(F)cc3)c(O)c(=O)n2C)o1 [Compound 11, Raltegravir, reference compound] | 0.2 log10 | 0.37 log10 | − (no inhibition at 60 μM) | 0.25 log10 | 0.35 log10 | − (no inhibition at 60 μM) |  |  |  |  | 
CCOC(=O)c1sc(NC(=O)CSc2nccc(C)n2)c(C#N)c1C [Compound 27] |  |  | − (no inhibition at 60 μM) |  |  |  | − | − | − | − | Vero cell toxicity Qualitative (Vero cells): T
Cc1cc(=O)oc2cc(O)c(O)cc12 [Compound 34] | 0.08 log10 | 2.64 log10 | ++ (inhibition at 20 μM) | −0.07 log10 | 3.29 log10 | − (no inhibition at 60 μM) |  |  |  |  | 
CN(C)c1ccc(-c2c3cc(O)c(=O)cc-3oc3cc(O)c(O)cc23)cc1 [Compound 35] |  |  | +++ (inhibition at 10 μM) |  |  | +++ (inhibition at 10 μM) | − | − | − | − | 
O=c1cc2oc3cc(O)c(O)cc3c(-c3ccccn3)c-2cc1O [Compound 39] | 0.19 log10 | 0.22 log10 | +++ (inhibition at 10 μM) | 0.12 log10 | 0.17 log10 | +++ (inhibition at 10 μM) |  |  |  |  | 
CCOC(=O)c1cc2ccccc2n(O)c1=O [Compound 42] |  |  | − (no inhibition at 60 μM) |  |  | + (inhibition at 60 μM) | − | − | − | − | 
O=c1ccc2ccccc2n1O [Compound 43] | 0.31 log10 | 1.31 log10 | − (no inhibition at 60 μM) | 0.31 log10 | 1.13 log10 | − (no inhibition at 60 μM) |  |  |  |  | 
Cc1cc(C)n(O)c(=O)c1C#N [Compound 44] |  |  | − (no inhibition at 60 μM) |  |  | − (no inhibition at 60 μM) | − | − | − | − | 
O=C1c2cccc3cccc(c23)C(=O)N1O [Compound 45] |  |  | − (no inhibition at 60 μM) |  |  | − (no inhibition at 60 μM) | − | − | − | − | 
CC(C)c1cccc(O)c(=O)c1 [Compound 47, Beta-thujaplicin] | 0.31 log10 | 1.86 log10 | − (no inhibition at 60 μM) | 0.22 log10 | 1.38 log10 | − (no inhibition at 60 μM) |  |  |  |  | Replication inhibition HSV-1 5 μM (HSV-1 [3]): 0.02 log10; Replication inhibition HSV-1 50 μM (HSV-1 [3]; 50 μM): 5.06 log10; Inhibition of HSV-1 replication (in words) (HSV-1 [1]): negligible inhibitors; CC50 ([4]; read-out: Toxicity, CC50 by MTT assay, HFF cells, 24 h): > 100 µM; Inhibition of HSV-2 replication (in words) (HSV-2 [2]): negligible inhibitors; Replication inhibition HSV-2 5 μM (HSV-2 [5]): 0.08 log10; Replication inhibition HSV-2 50 μM (HSV-2 [5]; 50 μM): 5.16 log10
CC(C)c1ccc(O)c(=O)cc1 [Compound 48, Gamma-thujaplicin] | 0.31 log10 | 4.71 log10 | − (no inhibition at 60 μM) | 0.20 log10 | 4.57 log10 | − (no inhibition at 60 μM) |  |  |  |  | Replication inhibition HSV-1 5 μM (HSV-1 [3]): 0.05 log10; Replication inhibition HSV-1 50 μM (HSV-1 [3]; 50 μM): 5.99 log10; Inhibition of HSV-1 replication (in words) (HSV-1 [1]): negligible inhibitors; CC50 [4]: > 100 µM; Inhibition of HSV-2 replication (in words) (HSV-2 [2]): negligible inhibitors; Replication inhibition HSV-2 5 μM (HSV-2 [5]): 0.20 log10; Replication inhibition HSV-2 50 μM (HSV-2 [5]; 50 μM): 5.76 log10
O=C(Nc1ccc(O)c(=O)cc1)c1ccccc1 [Compound 52] | 0.07 log10 | 2.02 log10 | − (no inhibition at 60 μM) | 0.10 log10 | 1.34 log10 | − (no inhibition at 60 μM) |  |  |  |  | Replication inhibition HSV-1 5 μM (HSV-1 [3]): 0.10 log10; Replication inhibition HSV-1 50 μM (not quantified) (HSV-1 [3]; 50 μM): NQ; Inhibition of HSV-1 replication (in words) (HSV-1 [1]): negligible inhibitors; CC50 [4]: > 100 µM; Inhibition of HSV-2 replication (in words) (HSV-2 [2]): negligible inhibitors; Replication inhibition HSV-2 5 μM (HSV-2 [5]): −0.01 log10; Replication inhibition HSV-2 50 μM (not quantified) (HSV-2 [5]; 50 μM): NQ
O=c1cc(NCc2ccccc2)c2cccnc2n1O [Compound 151] | 2.16 log10 |  |  | 2.26 log10 |  |  |  |  |  |  | Anti-HSV-1 Log10 suppression 5 μM (HSV-1 [1]; listed as #151): > 2.15 log10; Cytotoxicity at 50 μM (in words) (Vero cells): significant cytotoxicity; Vero cell toxicity Qualitative (Vero cells): T; Anti-HSV-2 Log10 suppression 5 μM (HSV-2 [2]; listed as #151): > 2.15 log10
O=c1cc(NC2CCc3ccccc32)c2cccnc2n1O (stereo not drawn) [Compound 155] | 3.85 log10 |  |  | 3.88 log10 |  |  |  |  |  |  | Anti-HSV-1 Log10 suppression 5 μM (HSV-1 [1]; listed as #155): > 3.84 log10; Cytotoxicity at 50 μM (in words) (Vero cells): significant cytotoxicity; Vero cell toxicity Qualitative (Vero cells): T; Anti-HSV-2 Log10 suppression 5 μM (HSV-2 [2]; listed as #155): > 3.84 log10
